# Data: ChEMBL document CHEMBL1146228, “Stellettins L and M, cytotoxic isomalabaricane-type triterpenes, and sterols from the marine sponge Stelletta tenuis” (J Nat Prod, 2007)
# Tests used:
# Format in all cases: functional, cell-based
# A549 = assay: Cytotoxicity against A549 cells after 48 hrs by MTT assay; settings: Homo sapiens, A549, 48 h
# HT-29 = assay: Cytotoxicity against HT29 cells after 48 hrs by MTT assay; settings: Homo sapiens, HT-29, 48 h
# SMMC-7721 = assay: Cytotoxicity against SMMC7721 cells after 48 hrs by MTT assay; settings: Homo sapiens, SMMC-7721, 48 h
# AGS = assay: Cytotoxicity against AGS cells after 48 hrs by MTT assay; settings: Homo sapiens
Compound,IC50 (A549) [µM],IC50 (HT-29) [µM],IC50 (SMMC-7721) [µM],IC50 (AGS) [µM]
O=c1[nH]cc(F)c(=O)[nH]1 [FLUOROURACIL],9.2,540,51,370
CC(/C=C/C=C(\C)C(=O)O)=C\C=C\C(C)=C1\C(=O)C[C@H]2[C@@]3(C)CC[C@H](O)C(C)(C)[C@@H]3CC[C@]12C [STELLETTIN L],28,33,120,3.9
CC(/C=C/C=C(C)/C=C/C=C(\C)C(=O)O)=C1/C(=O)C[C@H]2[C@@]3(C)CC[C@H](O)C(C)(C)[C@@H]3CC[C@]12C [STELLETTIN M],34,42,90,2.1
CC[C@]1(O)C[C@H]2CN(CCc3c([nH]c4ccccc34)[C@@](C(=O)OC)(c3cc4c(cc3OC)N(C=O)[C@H]3[C@@](O)(C(=O)OC)[C@H](OC(C)=O)[C@]5(CC)C=CCN6CC[C@]43[C@@H]65)C2)C1 [VINCRISTINE],0.36,0.21,< 0.12,< 0.12
